# Reference: patent publication US7585826B2, “Compositions counteracting pesticides and malodorants” (priority 2007, dated 2009)
# Assay: Decomposition rate of 17 pesticides mixed with the composition prepared in Example 1 (HPLC), against tap water or 10% brine controls
# Assay type: physicochemical
# Conditions: 10 ppm pesticide, composition of Example 1, 5 min; among seventeen pesticides
# Description: The above-prepared composition was tested to decompose 17 pesticides, i.e., Diazinon, Terbufos, Acephate, Glyphosate, Phosmet, Mevinphos, Benomyl, Metalaxyl, Pyrnetrozine, Methomyl, Fenobucard, Carbendazim, Pencycuron, Hexaconazole, Thiophanate-methyl, Cartap, and Thiabendazole. The decomposition rates were measured as follows:
# Each pesticide was dissolved in tap water at a concentration of 10 ppm. 10 mL pesticide solution was mixed with 10 mL of the composition prepared in Example 1 for 5 min. 10 mL pesticide solution was also mixed with 10 mL tap water or 10 mL 10% brine solution to prepare control solution. The pesticide concentration of each tested reaction solution was measured by high performance liquid chromatography.
row,SMILES,decomposition rate compared with the other pesticides tested
1,COP(=O)(NC(C)=O)SC (stereo not shown) [Acephate],higher rates than the others
2,CCCCC(O)(Cn1cncn1)c1ccc(Cl)cc1Cl (stereo not shown) [Hexaconazole],higher rates than the others
3,CCOP(=S)(OCC)SCSC(C)(C)C [Terbufos],higher rates than the others

# Assay: Time-course decomposition of pesticides reacted with the composition prepared in Example 1 (HPLC)
# Assay type: physicochemical
# Conditions: 7.5 mL of 10 ppm pesticide + 2.5 mL composition of Example 1; after 5.0 min reaction time
# Description: 7.5 mL of a pesticide solution, containing 10 ppm Terbufos, Diazinon, Hexaconazole, or Fenobucard, was allowed to react with 2.5 mL of the composition prepared in Example 1 for 1.0 min, 3.0 min, and 5.0 min, respectively. HPLC was used to determine the concentrations of the pesticide.
row,SMILES,pesticide decomposed [%]
1,CCOP(=S)(OCC)Oc1cc(C)nc(C(C)C)n1 [Diazinon],87
2,CCC(C)c1ccccc1OC(=O)NC (stereo not shown) [Fenobucard],76
3,CCCCC(O)(Cn1cncn1)c1ccc(Cl)cc1Cl (stereo not shown) [Hexaconazole],85
4,CCOP(=S)(OCC)SCSC(C)(C)C [Terbufos],91
